Laboratory results from PMC10856564, “Metabolites from Streptomyces aureus (VTCC43181) and Their Inhibition of Mycobacterium tuberculosis ClpC1 Protein” (Molecules, 2024).
pIC50: −log10 of the molar value. Entries after “also recorded” stand apart in the source; their conditions may differ.

Assays:
[1] = tested on: ClpC1; conditions: cited from earlier work; for ClpC1 inhibition: no reference at the place
[2] = tested on: tuberculosis bacteria; conditions: through targeting the regulatory protein ClpC1; cited from earlier work
[3] = tested on: recombinant ClpC1 protein; format: biochemical; conditions: compounds at 0.1 µM, 1.0 µM, and 10.0 µM, released phosphate, BIOMOL Green, absorbance at 620 nm; for Affection of ATPase activity of ClpC1: controls ecumicin and rufomycin, values only in Figure 5
[4] = cited from earlier work
Description: Compound 1 (7 mg) was afforded after purification using Sephadex and silica gel column chromatography, followed by thin-layer chromatography. This compound was obtained as a colorless powder.

[5] = tested on: leukocyte; conditions: cited from earlier work
Description: (§1) Compound 2 (3 mg) was yielded after column chromatography on normal-phase silica gel and the Sephadex LH20 column. Compound 2 (3 mg) was obtained as a white powder. […] The NMR data of compound 2 indicated a lactone ring structure consisting ...

[6] = tested on: HCV NS3 protease; conditions: cited from earlier work
Description: as §1

[7] = cited from earlier work; remark: listed apart in the source
Description: as §1

[8] = cited from earlier work; remark: listed apart in the source
Description: Compound 3 (12 mg) was obtained as a white solid. This compound was afforded after two reverse-phase column chromatography. […] In the ^1H NMR spectrum, ten signals of protons appeared at δH 3.57–3.54 (2H, m, α-H of Leu^1 & Leu^2), 3.50 (1H, d, J = 3.5, α-H of Ile), 3.43 (3H, d, J = 4.5, α-H of Ala^1, Ala^2, and Ala^3), 1.97–1.95 (1H, m, β-H of Ile), 1.83–1.77 (2H, m, γ-H of Leu^1, and Leu^2), 1.83–1.59 (4H, m, β-H of Leu^1, and Leu^ ...

[9] = tested on: Gr (+) and Gr (-) microbacteria; conditions: in vitro; against Gr (+) and Gr (-) microbacteria; cited from earlier work
From the text: Streptomyces aureus is a species of actinomycete belonging to the genus Streptomyces. Its spores are spherical or oval in shape, and the average diameter is about 0.9 μ in width and 1.2 μ in length. […] The morphological characteristics of the S. aureus depend on different nutritional environments. A previous study reported that many active secondary metabolites were produced by this actinomycete strain. Alkaloid azirinomycin and 3-methyl-2H-azirine-2-carboxylic acid isolated fr ...

[10] = tested on: ClpC1/CplP1/ClpP2; conditions: via change in configuration of ClpC1; cited from earlier work
[11] = tested on: ClpC1; conditions: cited from earlier work

In the case of cyclomarin, the “effect on ATPase activity of ClpC1” value [1] is given as “shown to affect the ATPase activity of ClpC1”.
For Cyclomarin A, the anti-tuberculosis activity [2] is listed as “anti-tuberculosis activity through the mechanism of targeting the regulatory protein ClpC1 of tuberculosis bacteria”.
For `O=C1CCC(=O)N(O)CCCCCNC(=O)CCC(=O)N(O)CCCCCNC(=O)CCC(=O)N(O)CCCCCN1` [compound 1, nocardamin], the “Affection of ATPase activity of ClpC1” value [3] is given as “did not affect the ATPase activity of ClpC1”, the antimalarial activity [4] is given as “antimalarial activity” and the siderophore activity [4] is given as “showed siderophore activity”.
For `O=c1ccoc(=O)o1` [compound 2, 4H-1,3-dioxine-2,4-dione], the “Affection of ATPase activity of ClpC1” value [3] is given as “did not affect the ATPase activity of ClpC1”, the leukocyte inhibitory effects [5] is given as “leukocyte inhibitory effects” and the pIC50 [6] is given as 4.10. For the same compound, the antioxidant activity [7] was “possesses antioxidant activity”.
For halolitoralin A [compound 3], the anthelmintic activity [8] is listed as “anthelmintic activity”, the antimicrobial activity [8] is listed as “potent antimicrobial activity” and the antitumor activities ([8]; in vitro) is listed as “antitumor activities in vitro”. The “ATP hydrolysis effect of ClpC1 compared with ecumicin” value ([3]; comparison with standard compound ecumicin) was “similarly to ecumicin, but with lower ATP hydrolysis affection; also recorded: affected the ATPase activity of ClpC1 in a similar way to the standard compound ecumicin; also recorded: showed the effect on the ATPase hydrolysis activity of ClpC1, acting similar way to the antibiotic eucumicin” and the “Affection of ATPase activity of ClpC1” value [3] was “effective for the ATPase hydrolysis of the ClpC1 protein”.
For lassomycin, the “effect on ATPase activity of ClpC1” value [1] is listed as “shown to affect the ATPase activity of ClpC1” and the ClpC1 inhibition [1] is listed as “inhibited ClpC1”.
In the case of `CC1=NC1C(=O)O` (centres unmarked) [azirinomycin], the antibiotic activity [9] is given as “exhibited broad-spectrum antibiotic activity in vitro”.
For ecumicin, the “effect on ATPase activity of ClpC1” value [1] is given as “shown to affect the ATPase activity of ClpC1”, the ClpC1 inhibition [1] is given as “inhibited ClpC1” and the effect on proteolysis [10] is given as “affecting proteolysis of ClpC1/CplP1/ClpP2”. For the same compound, the “binding site on ClpC1” value [11] was “binded to the allosteric site of ClpC1, causing a change in configuration”.
For rufomycin, the “effect on ATPase activity of ClpC1” value [1] is given as “shown to affect the ATPase activity of ClpC1” and the ClpC1 inhibition [1] is given as “inhibited ClpC1”.
